Experimental data reported in US8394431B2, “Composition of extracts from plants and the use thereof in prophylaxis or treatment of metabolism disorder of blood lipid” (priority 2008, dated 2013).

How the values were obtained:
[1] = system: L-O2 Lipoprotein Lipase of Liver Cells (LPL); assay: LPL activity in L-O2 hepatocytes (colorimetric kit); type: cell-based, human; settings: 50.0 μg/ml, normal 12.63 ± 0.67
Protocol: The L-O2 human normal liver cells were cultured in routine way, various concentrations of FTZCE were respectively added after cells fusion, continuously cultured the cells for a certain time followed by collecting cells to prepare cell homogenates. Using LPL/HL detection kit (Nanjing Jiancheng Biotechnology Research Institute), the LPL/HL activity was detected by colorimetric method to research the effects of various composition of extracts from plants conbination on LPL activity and compare the enzyme activity of hepatocyte LPL/HL under the action of different concentrations of FTZEC. The gene expressions of hepatocyte LPL/HL were determined by RT-PCR method to observe the affects of FTZEC on the hepatocyte LPL/HL gene expression.

[2] = system: Dietary hyperlipidemia New-Zealand female rabbits; assay: Lipid metabolism of hyperlipidemia New-Zealand female rabbit model; type: in vivo; settings: hyperlipidemia unsexed female rabbits, dose 3 mg/kg, gavage, 12 weeks; for HDL-C: model 0.871 ± 0.30; for TG: model 3.98 ± 0.79; for LDL-C: model 11.63 ± 2.30; for TC: model 33.92 ± 3.49; for Ox-LDL: plasma ELISA, model 1.63 ± 0.30
Source text: Purebred New Zealand female rabbits were unsexed and fed with 0.5% cholesterol diet, and intravenously injected with bovine serum albumin to establish the model. The experimental animals were 49 New Zealand Angora purebred female rabbits, 1.8-2.2 kg, 3-4 months old which were provided by Guangdong Province Experimental Animal Center. […] In the sham-operated group, the sham operation was confirmed (cutting a small piece of fat tissues around the ovary), without removing the ovaries. The rabbits were given ordinary commercial feed (120-150 g/d) after surgery. […] In the compound Fufang tiaozhi FTZ group (equal to five times of clinical adult daily dose) and other administration groups, the rabbits were administrated with drugs by gavage. The control group and the model group were fed and administrated by gavage with same volume of normal saline. The body weights were examined at 12 weeks of the experiment. 2 ml blood was taken by the ear artery for blood lipid measurement. The rabbits were fasted for 16 h before each blood sampling. […] The total cholesterol, triglyceride, HDLC and LDLC were detected by automatic biochemical analyzer and the steps were carried out according to the kit instructions. The OX-LDL in plasma was measured by ELISA, according to kit instructions.

[3] = system: Dietary hyperlipidemia rats; assay: Blood lipid of dietary hyperlipemia model in rats; type: in vivo, SD rats; settings: serum, dose 3 mg/kg, 8 weeks; for HDL-C: high lipid control 0.71 ± 0.30; for LDL-C: high lipid control 1.43 ± 0.30; for TC: high lipid control 3.32 ± 0.49
Protocol: Observe the effects of different doses of FTZEC on the serum TC, TG, LDL-C, and HDL-C of hyperlipemia rats.
In addition to ordinary feed in control group, other groups were given high fat emulsion in 10 ml/kg every morning by gavage beside the ordinary feed, and given corresponding drugs 4 hours after feeding, in which the normal group and the model groups were given equal amount of normal saline, administrated for continuous 8 weeks. These animals were fasted for 1 d, when water was given, in the next morning, the blood was taken from orbital veniplex after the last administration, centrifuged and separated the serum to test the TC, TG, HDL-C, LDL-C respectively.

[4] = target: T1, HMG-CoA reductase (Rattus norvegicus, UniProt P51639); assay: Inhibition of HMG-CoA reductase activity (rat liver cell microsomes); type: biochemical, rats
T1 construct: The rats liver cells microsomes were prepared into HMG-CoA reductase solution; from tissue; host or cells: rat liver cell microsomes
T1 sequence (P51639 1-887): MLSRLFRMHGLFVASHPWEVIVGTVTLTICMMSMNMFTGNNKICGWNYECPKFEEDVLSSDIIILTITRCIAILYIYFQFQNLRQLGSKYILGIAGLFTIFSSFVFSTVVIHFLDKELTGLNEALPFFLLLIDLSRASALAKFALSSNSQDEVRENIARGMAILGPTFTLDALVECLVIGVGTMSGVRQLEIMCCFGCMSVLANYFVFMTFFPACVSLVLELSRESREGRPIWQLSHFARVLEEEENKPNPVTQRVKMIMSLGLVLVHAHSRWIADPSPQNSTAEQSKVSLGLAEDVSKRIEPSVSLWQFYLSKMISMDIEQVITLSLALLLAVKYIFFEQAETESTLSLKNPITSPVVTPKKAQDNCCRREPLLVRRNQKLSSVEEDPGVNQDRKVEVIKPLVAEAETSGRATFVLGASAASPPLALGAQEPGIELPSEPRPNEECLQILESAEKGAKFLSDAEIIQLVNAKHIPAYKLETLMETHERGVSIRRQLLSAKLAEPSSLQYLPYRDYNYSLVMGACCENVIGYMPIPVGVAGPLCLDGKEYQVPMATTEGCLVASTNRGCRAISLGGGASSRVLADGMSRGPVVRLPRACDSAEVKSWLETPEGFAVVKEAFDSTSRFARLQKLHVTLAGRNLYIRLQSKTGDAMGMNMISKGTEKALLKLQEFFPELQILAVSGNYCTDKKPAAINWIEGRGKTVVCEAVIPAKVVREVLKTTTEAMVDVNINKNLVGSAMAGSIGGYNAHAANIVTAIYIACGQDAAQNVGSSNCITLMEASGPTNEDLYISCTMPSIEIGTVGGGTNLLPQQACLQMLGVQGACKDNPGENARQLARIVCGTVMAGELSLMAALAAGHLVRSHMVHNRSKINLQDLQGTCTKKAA
Protocol: Test the effects of various FTZEC conbination in vitro experiment on inhibiting HMGCoA reductase activity and calculate the IC50 of the composition of extracts from plants on inhibition of HMGCoA reductase and compare with pravastatin.
The rats liver cells microsomes were prepared into HMG-CoA reductase solution. The activities of the HMG-CoA reductase were determined by literature method. The enzyme activity in each group was respectively determined to calculate the IC50 (μg/ml) of FTZEC on HMG-CoA reductase activity.

[5] = system: hypercholesterolemic patients; assay: Clinical validation in hyperlipemia patients: blood lipids and efficacy rate; type: in vivo, human; settings: patients n = 30, one tablet twice a day, 2 months
Protocol: 60 cases with hyperlipemia treated by FTZEC were analyzed, using the tablets obtained in Experiment 1. The experiment was confirmed according to Principles for Clinical Study of New Chinese Medicines in hyperlipemia, Ministry of Health of the People's Republic of China. 60 cases were in-patients or out-patients with hyperlipidemia diagnosed according to diagnostic criteria (1985), of which 40 cases were outpatients and 20 cases were in-patients; the patients were randomly divided into two groups, the treatment group and the control group. […] All patients accepted hyperlipidemia education, diet control, and regular exercise. […] 5.2 Efficiency standard of blood lipid Clinical control: the experimental examination returned to normal. Marked effective: the blood lipid detection achieved any one of the following indexes: […] Effective: the blood lipid detection achieved any one of the following indexes: […] Note: when determine the efficacy of the complicated hyperlipidemia, if the two indicators were not consistent, the lower efficacy was determined as the final result.

IC50 [4]	SMILES	LPL activity [1]	HDL-C [2]	TG [2]	LDL-C [2]	TC [2]	Ox-LDL [2]	HDL-C [3]	LDL-C [3]	TC [3]	TG ([3]; high lipid control 3.28 ± 0.79)	Effective Cases [5]	Effective Rate % [5]	Invalid Cases [5]	Invalid Rate % [5]	Marked effective Cases [5]	Marked effective Rate % [5]	Total effective rate % [5]
	CC(C)OC(=O)C(C)(C)Oc1ccc(C(=O)c2ccc(Cl)cc2)cc1 [Fenofibrate]	16.95 ± 3.02 g FFA/mL supernatant · h	1.06 ± 0.26 mmol/L	1.88 ± 0.82 mmol/L	4.99 ± 2.25 mmol/L	19.89 ± 2.62 mmol/L	0.99 ± 0.25 mmol/L	1.22 ± 0.43 mmol/L	0.89 ± 0.42 mmol/L	2.85 ± 0.45 mmol/L								
	CC[C@H](C)C(=O)O[C@H]1C[C@@H](C)C=C2C=C[C@H](C)[C@H](CC[C@@H]3C[C@@H](O)CC(=O)O3)[C@H]21 [Lovastatin]							0.96 ± 0.26 mmol/L	0.91 ± 0.25 mmol/L	2.29 ± 0.32 mmol/L	2.08 ± 0.82 mmol/L							
4.36 µM	CC[C@H](C)C(=O)O[C@H]1C[C@H](O)C=C2C=C[C@H](C)[C@H](CC[C@@H](O)C[C@@H](O)CC(=O)O)[C@H]21 [Pravastatin]		1.36 ± 0.28 mmol/L	2.08 ± 0.82 mmol/L	10.29 ± 2.27 mmol/L	12.69 ± 3.62 mmol/L	1.29 ± 0.27 mmol/L					15	50.0%	4	13.3%	11	36.7%	86.7%
